A word on the EC50: it is the concentration needed to bring the measured effect to its halfway point. By Kd is commonly meant a measure of binding affinity in units of concentration. What is called IC50 is the concentration needed to halve the response being measured.

From patent US20220298145A1, “BRAF INHIBITORS AS PARADOX BREAKERS” (Hoffmann-La Roche Inc., priority 2019, published 2022) come the findings set out here.

Read-outs that look alike come from different tables or passages of the source.

Assay [1] has as its system ERK 1,2 phosphorylation in HCT116 cells expressing WT BRAF. Kind of assay: HTRF assay for P-ERK determination in HCT116 cells (paradoxical BRAF activation). Format: cell-based. Particulars: for Emax: Homo sapiens, HCT-116, read-out: Percentage of maximum paradox inducing effect from dabrafenib; for EC50: read-out: P-ERK EC50 conc. at which the compound induces p-ERK activation of 50% of that induced by dabrafenib (Positive control paradox inducer) HCT-116, HCT-116 cells, 1 hour drug incubation, not applicable = activation does not reach 50% of dabrafenib maximum. From the text: DMEM no-phenol red medium supplemented with L-glutamine was purchased from (Thermo Fisher Scientific). Fetal bovine serum (FBS) was purchased from VWR. Advanced ERK phospho-T202/Y204 kit-10,000 tests was purchased from Cisbio cat #64AERPEH. A375 and HCT116 cells were originally obtained from ATCC and banked by the Roche repository. 384-well microplates were purchased from Greiner Bio-One, 384-well, (With Lid, HiBase, Low volume cat 784-080).
(§1) A375 is a cellular cancer model expressing V600E mutated BRAF and HCT116 a cellular cancer model expressing WT BRAF. First generation BRAF inhibitors such as e.g. dabrafenib induce a paradox effect on tumour cells in that they inhibit the growth of V600E mutated BRAF cells (such as e.g. A375), while they activate growth in WT BRAF cells (such as e.g. HCT 116). ERK 1,2 phosphorylation (terminal member of the phosphorylation cascade of the MAPK pathway) is hereafter reported as main readout for the activation status of the MAPK pathway. Prior to the assay, A375 and HCT116 cell lines are maintained in DMEM no-phenol red medium supplemented with 10% fetal bovine serum (FBS). Following compound treatment, P-ERK levels are determined by measuring FRET fluorescence signal induced by selective binding of 2 antibodies provided in the mentioned kit (Cisbio cat #64AERPEH) on ERK protein when phosphorylated at Thr202/Tyr204. Briefly, 8000 cells/well in 12 μl media/well are plated in the 384-well plate and left overnight in the incubator (at 37° C. with 5% CO2-humidified atmosphere), the following day the plate is treated in duplicate with test compounds, dabrafenib and PLX8394 (the latter two as controls) at the following final drug concentrations: 10 μM-3 μM-1 μM-0.3 μM-0.1 μM-0.03 μM-0.01 μM-0.003 μM-0.001 μM, all wells are subjected to DMSO normalization and drug incubation occurs for 1 hour. Then, 4 μl of a 4× lysis buffer supplied with the kit are added to the wells, the plate is then centrifuged for 30 second (300 rcf) and incubated on a plate shaker for 1 h at RT.
(§2) At the end of the incubation 4 μL/well of advanced P-ERK antibody solution (prepared according to manufacturer's instruction) followed by 4 μL/well of criptate P-ERK antibody solution (prepared according to manufacturer's instruction) (Cisbio cat #64AERPEH) are added to test wells.
(§3) In order to allow proper data normalization control wells non drug treated reported in the following table are always included in each plate (according to manufacturer's instruction):
(§4) The plate is then centrifuged at 300 rcf for 30 second, sealed to prevent evaporation and incubated overnight in the dark at room temperature.
The plate is then analyzed and fluorescence emission value collected through a Pherastast FSX (BMG Labtech) apparatus at […].
(§5) The obtained fluorescence values are processed according to the formula Ratio=Signal (620 nm)/Signal (625 nm)*10000 then the average of the ratio on the blank is subtracted to all values.
Data are normalized in the case of HCT116 cells (BRAF activation) considering the average of the ratio (blank subtracted) derived by DMSO only treated cells as 0% and by considering the average of the ratio (blank subtracted) derived by dabrafenib treated cells at the concentration which provides the highest signal as 100%. Individual points are fitted with either sigmoidal or bell shape curves, and the percentage of activation compared to maximum dabrafenib-mediated activation is determined. The EC50 is the concentration at which activation equal to 50% of the maximum achieved by dabrafenib is obtained.
The Percentage of Maximum paradox inducing effect from dabrafenib is determined by evaluating the percentage at which the test compound induce its maximum P-ERK signal as percentage of the highest signal produced by dabrafenib within the dose range tested.
A general note: TR-FRET usually uses a lanthanide donor and a delayed reading to cut background.

Another assay has as its target BRAF (V600E) (Homo sapiens, UniProt P15056, V600E). Kind of assay: Kd for RAF kinases: BRAF (V600E). Format: binding.
Assay [2] relates to ERK 1,2 phosphorylation in A375 cells expressing V600E mutated BRAF. Kind of assay: HTRF assay for P-ERK determination in A375 cells (BRAF inhibition). Format: cell-based. Particulars: Homo sapiens, A-375, 1 h, read-out: pERK IC50 A375.
Text: DMEM no-phenol red medium supplemented with L-glutamine was purchased from (Thermo Fisher Scientific). Fetal bovine serum (FBS) was purchased from VWR. Advanced ERK phospho-T202/Y204 kit-10,000 tests was purchased from Cisbio cat #64AERPEH. A375 and HCT116 cells were originally obtained from ATCC and banked by the Roche repository.
as §1, with “First generation BRAF inhibitors such as e.g. dabrafenib induce a paradox effect on tumour cells in that they inhibit the growth of V600E mutated BRAF cells (such as e.g. A375), while they activate growth in WT BRAF cells (such as e.g. HCT 116).” left out, “Following compound treatment, P-ERK levels are determined by measuring FRET fluorescence signal induced by selective binding of 2 antibodies provided in the mentioned kit (Cisbio cat #64AERPEH) on ERK protein when phosphorylated at Thr202/Tyr204.” left out
as §2, §3, §4, §5
Data are normalized in the case of A375 cells (BRAF inhibition) considering the average of the ratio (blank subtracted) derived by DMSO only treated cells as 100% and by considering the average of the ratio (blank subtracted) derived by 10 uM dabrafenib treated cells as 0%. Mean of the normalized points are fitted with sigmoidal curve and IC50 determined.

The next assay concerns the target CRAF (Homo sapiens, UniProt P04049). As to the kind of experiment: Kd for RAF kinases: CRAF. Format: binding.
The target in the next assay is BRAF (Homo sapiens, UniProt P15056). Kind of assay: Kd for RAF kinases: BRAF. Format: binding.
BRAF, sequence (P15056 whole entry): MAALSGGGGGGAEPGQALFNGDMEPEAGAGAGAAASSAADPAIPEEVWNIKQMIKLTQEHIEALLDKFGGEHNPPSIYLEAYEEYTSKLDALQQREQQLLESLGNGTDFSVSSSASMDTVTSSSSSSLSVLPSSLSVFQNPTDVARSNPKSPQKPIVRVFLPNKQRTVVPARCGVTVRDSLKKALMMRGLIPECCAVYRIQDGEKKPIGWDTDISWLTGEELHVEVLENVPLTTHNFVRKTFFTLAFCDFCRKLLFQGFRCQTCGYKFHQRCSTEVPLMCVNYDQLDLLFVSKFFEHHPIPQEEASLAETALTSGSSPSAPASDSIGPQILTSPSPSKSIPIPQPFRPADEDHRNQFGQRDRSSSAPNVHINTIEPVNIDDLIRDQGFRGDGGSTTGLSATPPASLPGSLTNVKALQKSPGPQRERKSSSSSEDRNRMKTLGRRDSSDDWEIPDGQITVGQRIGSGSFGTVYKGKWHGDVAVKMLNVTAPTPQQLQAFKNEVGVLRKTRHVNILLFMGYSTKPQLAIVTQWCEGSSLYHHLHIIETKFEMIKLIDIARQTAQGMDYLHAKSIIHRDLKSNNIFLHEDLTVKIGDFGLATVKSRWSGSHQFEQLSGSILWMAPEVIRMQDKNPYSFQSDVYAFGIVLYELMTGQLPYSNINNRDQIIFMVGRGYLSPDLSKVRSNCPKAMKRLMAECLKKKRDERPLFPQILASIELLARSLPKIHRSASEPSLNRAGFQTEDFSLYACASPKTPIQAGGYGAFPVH

CRAF, sequence (P04049 whole entry): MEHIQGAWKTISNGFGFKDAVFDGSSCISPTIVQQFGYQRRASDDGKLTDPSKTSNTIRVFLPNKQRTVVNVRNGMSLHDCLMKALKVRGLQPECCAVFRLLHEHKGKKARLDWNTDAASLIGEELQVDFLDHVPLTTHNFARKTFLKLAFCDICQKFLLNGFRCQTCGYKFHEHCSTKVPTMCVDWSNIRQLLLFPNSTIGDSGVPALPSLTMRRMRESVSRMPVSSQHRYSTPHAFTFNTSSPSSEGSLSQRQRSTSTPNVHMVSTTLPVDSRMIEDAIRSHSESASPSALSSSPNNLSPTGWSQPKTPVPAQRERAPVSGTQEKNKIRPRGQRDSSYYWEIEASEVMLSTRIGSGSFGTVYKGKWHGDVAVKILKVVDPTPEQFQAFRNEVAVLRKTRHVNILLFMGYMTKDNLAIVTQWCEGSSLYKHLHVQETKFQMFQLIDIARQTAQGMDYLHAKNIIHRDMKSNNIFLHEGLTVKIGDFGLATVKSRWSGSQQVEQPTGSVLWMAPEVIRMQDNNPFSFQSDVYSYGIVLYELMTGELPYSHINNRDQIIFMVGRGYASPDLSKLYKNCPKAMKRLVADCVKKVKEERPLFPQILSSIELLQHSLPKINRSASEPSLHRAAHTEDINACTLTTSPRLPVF
BRAF (V600E), sequence (P15056 whole entry V600E): as the sequence (P15056 whole entry) above, with V600E counted along it

`Cn1cnc2ccc(Nc3c(Cl)ccc(NS(=O)(=O)N4CCCC4)c3C#N)cc2c1=O` [Example 14, N-[4-chloro-2-cyano-3-[(3-methyl-4-oxo-quinazolin-6-yl)amino]phenyl]pyrrolidine-1-sulfonamide]: the Emax in assay [1] came to 74%. Moreover, the EC50 in assay [1] turned out to be 204 nM. Further, the dissociation constant (Kd) at BRAF (V600E) (read-out: Kd BRAF (V600E)) is 0.7 nM; on CRAF it was 1.5 nM; on BRAF (read-out: Kd BRAF), 1.4 nM. Further, the IC50 in assay [2] is 13.7 nM.

As for `Cn1cnc2ccc(Oc3c(F)ccc(NS(=O)(=O)N4CCCC4)c3C#N)cc2c1=O` [Example 15, N-[2-cyano-4-fluoro-3-(3-methyl-4-oxo-quinazolin-6-yl)oxy-phenyl]pyrrolidine-1-sulfonamide], the Emax in assay [1] came out at 63%. Further, in assay [1], the EC50 came to 172 nM. The Kd on BRAF (V600E) (read-out: Kd BRAF (V600E)) is 0.9 nM; on CRAF, 0.8 nM; on BRAF (read-out: Kd BRAF), 0.4 nM. Besides, in assay [2], the IC50 came to 1.6 nM.

In the case of `Cn1cnc2ccc(Oc3c(F)ccc(NS(=O)(=O)C4CCCC4)c3C#N)cc2c1=O` [Example 16, N-[2-cyano-4-fluoro-3-(3-methyl-4-oxo-quinazolin-6-yl)oxy-phenyl]cyclopentanesulfonamide], in assay [1], the Emax stood at 70%. Further, the EC50 in assay [1] turned out to be 152 nM. Besides, the results for the Kd at BRAF (V600E), at CRAF and on BRAF were 1.9 nM, 0.7 nM and 1 nM, respectively. Also, the 50% inhibitory concentration (IC50) in assay [2] came to 2.3 nM.

With `CN(C)S(=O)(=O)Nc1ccc(F)c(Oc2ccc3ncn(C)c(=O)c3c2)c1C#N` [Example 17, 6-[2-cyano-3-(dimethylsulfamoylamino)-6-fluoro-phenoxy]-3-methyl-4-oxo-quinazoline], the Emax in assay [1] was determined as 71%. Also, the EC50 in assay [1] was 970 nM. The values for the Kd on BRAF (V600E), on CRAF and at BRAF were 4.3 nM, 3 nM and 1.7 nM, respectively. The IC50 in assay [2] came out at 2.6 nM.
